Measurements as given in patent US6586596B2, “Acetylcholine enhancers” (priority 1998, dated 2003).

Columns and labels:
[1] = tested on: Cynomologous monkeys; test: Hepatotoxic analysis, two-week oral study; type: in vivo; details: 5 mg/kg/day oral, 2 weeks; as to Autopsy, organ weight and histopathology: key: − no remarkable change; ↑ increase; ↓ decrease; + slight; ++ severe (diarrhea); as to Blood biochemistry: key: − no remarkable change; ↑ increase; ↓ decrease; + slight; ++ severe (diarrhea); as to Body weight: key: − no remarkable change; ↑ increase; ↓ decrease; + slight; ++ severe (diarrhea)
Source text: The following parameters were examined: body weight, clinical signs, food consumption, blood biochemistry (GOT, GPT, ALP, LDH, γ-GTP, ChE, Bil, T.Pro, Alb, A/G ratio, T.Cho, NEFA, TG). After the administration period, the animals were sacrificed and autopsied. Organs and tissues were weighed, then examined histopathologically.

[2] = tested on: scopolamine-induced spatial learning deficit; test: Water maze, scopolamine-induced deficit in spatial learning; type: in vivo, rats; details: p.o. 60 minutes before each trial; Cm.A 1.0 mg/kg/day; scopolamine 0.5 mg/kg i.p.
Protocol: A total of 6 trials (2 trials on 1st day, and 1 trial after 2nd day) were conducted to observe the effects of the test compounds. Scopolamine (0.5 mg/kg, i.p.) and the test compounds (p.o.) were administered 30 and 60 minutes before each trial, respectively.

[3] = tested on: aged rats (22 month-old); test: Water maze, aged rats; type: in vivo, male Fischer 344 rats
Source text: As compared with young rats, aged rats (22 month-old) were unable shorten the escape latency period. Even after the 11th trial, only a partial decrease in the latency period was evident in the aged rats.

[4] = target: T1, peripheral 5-HT3 receptor (Rattus norvegicus, UniProt P35563); test: 5-HT-evoked von Bezold-Jarish Effect (B.J.E.) in anesthetized rats; type: in vivo; details: Cm.A 3 to 10 mg/kg
T1 construct: from tissue; host or cells: whole anesthetized rat (peripheral receptors)
T1 sequence (P35563 24-483): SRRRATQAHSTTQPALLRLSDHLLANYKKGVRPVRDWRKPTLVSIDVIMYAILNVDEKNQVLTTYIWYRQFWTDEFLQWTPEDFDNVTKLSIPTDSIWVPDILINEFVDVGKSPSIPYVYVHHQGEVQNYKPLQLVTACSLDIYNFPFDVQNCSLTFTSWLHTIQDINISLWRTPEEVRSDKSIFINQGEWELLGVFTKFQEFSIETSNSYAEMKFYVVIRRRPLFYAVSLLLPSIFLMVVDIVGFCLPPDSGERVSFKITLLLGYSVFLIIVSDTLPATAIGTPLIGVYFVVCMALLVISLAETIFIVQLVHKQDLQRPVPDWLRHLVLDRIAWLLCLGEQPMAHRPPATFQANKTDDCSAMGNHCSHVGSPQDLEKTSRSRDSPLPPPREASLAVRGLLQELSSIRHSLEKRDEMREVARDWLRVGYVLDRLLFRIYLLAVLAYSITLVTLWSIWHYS
Protocol: A bolus i.v. injection of serotonin (5-HT) (20 μg/kg) caused reflex bradycardia transiently (von Bezold—Jarish Effect: B.J.E.) via activation of peripheral 5-HT3 receptor in anesthetized rats.

[5] = target: T2, 5-HT3 receptor (Mus musculus, UniProt P23979); test: serotonin 5-HT3 binding assay (NovaScreen), NIE-115 cells; details: 25° C., 60 minutes
T2 construct: The receptor source was NIE-115 cells; host or cells: NIE-115 cells
T2 sequence (P23979 24-489): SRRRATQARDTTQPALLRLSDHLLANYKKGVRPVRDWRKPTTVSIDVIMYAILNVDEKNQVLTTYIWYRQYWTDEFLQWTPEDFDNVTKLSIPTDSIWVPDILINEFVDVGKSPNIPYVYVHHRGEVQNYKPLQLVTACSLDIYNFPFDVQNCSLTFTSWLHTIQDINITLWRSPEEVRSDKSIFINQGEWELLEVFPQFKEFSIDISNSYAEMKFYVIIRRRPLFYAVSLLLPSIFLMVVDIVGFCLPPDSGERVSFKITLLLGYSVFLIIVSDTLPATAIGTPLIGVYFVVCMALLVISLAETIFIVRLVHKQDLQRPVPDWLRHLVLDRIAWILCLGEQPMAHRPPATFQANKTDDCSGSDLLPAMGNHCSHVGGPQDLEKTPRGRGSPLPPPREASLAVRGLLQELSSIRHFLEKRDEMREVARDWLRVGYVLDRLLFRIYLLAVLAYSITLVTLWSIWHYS
Protocol: Binding affinity of a variety of compounds, including Cm.A, for the 5-HT3 receptor was investigated using a commercially available serotonin 5-HT3 binding assay (NovaScreen, Hanover, Md.). The receptor source was NIE-115 cells (See Lunnis, S. C. R. and Kilparick, G. J., 189: Evr. Jrnl. Pharmacol. 223 (1990); and Hoyer, D. and Heijt, H. C., 33 Mol. Pharmacol., 303 (1988)). The reference compound utilized was “MDL 72222,” a 5-HT3 receptor antagonist. Reactions were carried out in 20 mM HEPES (pH 7.4) containing 150 mM NaCl at 25° C. for 60 minutes. The reaction was terminated by rapid vacuum filtration onto glass fiber filters. Radioactivity trapped onto the filters was determined and compared with the control values.

SMILES: COc1c2c(nc3ccccc13)CN(CCC1CCN(Cc3ccccc3)CC1)C2=O [Cm.A, 2-[2-(1-benzylpiperizin-4-yl)ethyl]-2,3-dihydro-9-methoxy-1H-pyrrolo[3,4-b]quinolin-1-one hemifumarate]
- clinical signs during the dosing period [1]: caused soft stools, but to a lesser extent than the other two compounds
- hepatotoxicity [1]: no hepatotoxicity
- Autopsy, organ weight and histopathology ([1]; F): −
- Blood biochemistry ([1]; F): −
- Body weight ([1]; F): −
- Clinical signs softstool ([1]; F): +
- Clinical signs vomiting ([1]; F): −
- Food consumption ([1]; F): −
- Autopsy, organ weight and histopathology ([1]; M): −
- Blood biochemistry ([1]; M): −
- Body weight ([1]; M): −
- Clinical signs softstool ([1]; M): +
- Clinical signs vomiting ([1]; M): −
- Food consumption ([1]; M): −
- deficit in spatial learning (escape latency) [2]: improved the deficit in spatial learning induced by scopolamine
- deficit of spatial learning (escape latency) [3]: gradually improved the deficit of spatial learning to a level nearly equivalent to young rats
- inhibition of 5-HT-evoked B.J.E. (reflex bradycardia) ([4]; i.v. pretreatment, E2020 0.1~1 mg/kg, 5-HT 20 μg/kg i.v.): inhibited B.J.E. dose dependently
- blood pressure, heart rate and other signs ([4]; i.v., THA 10 mg/kg, E2020 higher than 1 mg/kg, data not shown): without any change on blood pressure and heart rate
- IC50 ([5]; IC50, 20 mM HEPES pH 7.4, 150 mM NaCl): 1.18 µM
- Ki ([5]; Ki, 20 mM HEPES pH 7.4, 150 mM NaCl): 0.552 µM
